Measured values taken from patent US9861653B2, “Synergistic anti-cancer composition and a process for the preparation thereof” (Council of Scientific and Industrial Research, priority 2012, dated 2018).
Entries after “also recorded” stand apart in the source; their conditions may differ.

Key:
[1] = test system: ASPC-1 pancreatic cancer cells; experiment: MTS viability assay on ASPC-1 pancreatic cancer cells; assay type: cell-based, human; details: 48 h or 72 h continuous treatment, ESC8 5 μM
Method: (§1) Cells were treated for 48 h with a) DX-ESC8+NRP-1 ShRNA plasmid, b) DX-ESC8+control plasmid, c) DO-ESC8+NRP-1 ShRNA plasmid, d) DX+NRP-1 ShRNA plasmid, followed by ESC8 treatment e) ESC8, as free drug at the drug concentration of 5 μM in either naked or respective formulated state. The % of viabilities of treated cells (Y-axis) were calculated with respect to untreated cells [* denotes p<0.01 between DX-ESC8 lipoplex groups with other groups].
Cells were treated for 72 h with a) DX-ESC8+NRP-1 ShRNA plasmid, b) DX-ESC8+control plasmid, c) DX+NRP-1 ShRNA plasmid, d) DO+NRP-1 ShRNA plasmid e) ESC8, as free drug at the drug concentration of 5 μM in either naked or respective formulated state. For groups c and d the liposome concentrations of DX or DO were equivalent to the corresponding liposome concentration in DX-ESC8 containing 5 μM ESC8. The % of viabilities of treated cells (Y-axis) were calculated with respect to untreated cells [* denotes p<0.01 between DX-ESC8 lipoplex groups or DX+NRP-1 ShRNA plasmid group with other groups].
Cancer cells (ANV-1, PANC-1, ASPC-1) were inoculated at a concentration of 5000 cells/well of 96-well cell culture plates in 10% Fetal Calf serum (FCS) containing DMEM media. […]

[2] = test system: PANC-1 pancreatic cancer cells; experiment: MTS viability assay on PANC-1 pancreatic cancer cells; assay type: cell-based, human; details: 48 h, ESC8 5 or 2.5 μM
Method: as §1, with “DO-ESC8+NRP-1,” for “DO-ESC8+NRP-1 ShRNA plasmid,”, “DO-ESC8+control plasmid” for “DX+NRP-1 ShRNA plasmid, followed by ESC8 treatment”, “concentrations” for “concentration”, “5 or 2.5” for “5”
(§2) Cancer cells (ANV-1, PANC-1, ASPC-1) were inoculated at a concentration of 5000 cells/well of 96-well cell culture plates in 10% Fetal Calf serum (FCS) containing DMEM media. Following an incubation of minimum of 16 h at 37° C., the cells were treated in triplicate with respective lipoplexes (DX-ESC8, DO-ESC8, DX,) pre-complexed with 0.3 μg of NRP-1 or control plasmid amounts per well as discussed in Example 1. The cells were also treated with naked liposomes with or without ESC8 or free drug, ESC8, in a final volume of 300 μl (volume made up with 10% FCS containing DMEM media) continuously for 48 h (mostly) or 72 h. […] Thereafter cells were assayed for viability using MTS assay kit (Promega) following manufacturer's protocol.

[3] = test system: ANV-1 breast cancer cells with CSC-like property; experiment: MTS viability assay on ANV-1 breast cancer cells; assay type: cell-based, mouse
Method: The % of viabilities of treated cells (Y-axis) were calculated with respect to untreated cells [* denotes p<0.001 between DX-ESC8+NRP-1 group with other groups]
Cells were treated with a) DX-nutilin+NRP-1 ShRNA plasmid, b) DX-nutilin+control plasmid, c) DX+NRP-1 ShRNA plasmid, d) nutilin as free drug. The treatments were done in two different conditions, a) continuous treatment for 48 h by the respective formulations with […] effective nutilin concentration; b) treatment for only 4 h by respective formulations with […] effective nutilin concentrations. The % viabilities of treated cells (Y-axis) were calculated with respect to untreated cells.
as §2
For cells treated with DX-nutilin, the test solutions were: a) DX-nutilin pre-complexed with 0.3 µg of NRP-1 Sh-RNA plasmid, b) […] pre-complexed with 0.3 µg control plasmid, c) DX liposome pre-complexed with 0.3 µg NRP-1 Sh-RNA plasmid, d) only […] addition.

CCCCCCCC[N+](C)(CCCCCCCC)CCC[C@]1(O)CC[C@H]2[C@@H]3CCc4cc(O)ccc4[C@H]3CC[C@@]21C [ESC8, 17-α-[3-(N,N-dioctyl,N-methyl-amino)-propan-1-yl]-17β-estradiol]
killing / anticancer effect on ASPC-1 cells [1]: no anticancer effect; also recorded: least toxic effect | anti-cancer effect on PANC-1 cells [2]: no anticancer effect; also recorded: no toxicity | anticancer effect towards ANV-1 breast cancer cells ([3]; 48 h, ESC8 10 or 5 μM naked or formulated (FIG. 1)): very limited effect; also recorded: least anticancer effect | viability of ANV-1 cells ([3]; 48 h treatment, drug concentration 10 or 5 μM, with respect to untreated cells (FIG. 1)): 60-70% | ESC8 free drug concentration needed to get 95-100% of ANV-1 cell killing ([3]; 72 h treatment): at least 50 μM | visual effect on ANV-1 cells ([3]; shorter treatment time): no visual effect
